Experimental data published in article PMC12362796, “Bilirubin Targeting WNK1 to Alleviate NLRP3‐Mediated Neuroinflammation” (Advanced Science, 2025).

Legend:
[1] = test system: primary astrocytes; test: MQAE intracellular chloride measurement in primary astrocytes; type: cell-based; conditions: lacking KCC2 expression
From the text: (§1) Since bilirubin‐induced activation of WNK1 kinase activity increases [Cl⁻]i in neurons, we sought to elucidate the downstream effector proteins of WNK1 that are involved in this process. Neuronal [Cl⁻]i is primarily regulated by the Cl⁻‐K⁺ symporter KCC2, with additional modulation by factors such as the Na⁺‐K⁺‐Cl⁻ co‐transporter NKCC1, GABAA receptors, and glycine receptors (GlyR), all of which contribute to [Cl⁻]i homeostasis.^[ [31] ^] To investigate the mechanism underlying bilirubin‐induced changes in [Cl⁻]i, we selectively targeted these proteins using pharmacological inhibitors (VU0463271 for KCC2, bumetanide for NKCC1, bicuculline for GABAA receptors, and strychnine for GlyR) and activated KCC2 using CLP257.^[ [35], [36] ^] […] The bilirubin‐induced effect on [Cl⁻]i was not observed in primary astrocytes (Figure S15A,B, Supporting Information) or the HEK 293T cell line (Figure S15C, Supporting Information), both of which lacked KCC2 expression (Figure S16A,B, Supporting Information), further confirming that the effects of bilirubin and WNK1 on [Cl⁻]i elevation are dependent on KCC2.
(§2) Intracellular chloride concentration ([Cl⁻]i) was measured using the MQAE fluorescent dye (Life Technologies) following established protocols (Zhang, Lee et al. 2015). […]

[2] = target: T1, hWNK1 (181–507) (Homo sapiens, UniProt Q9H4A3); test: ADP-Glo kinase assay, purified hWNK1 kinase domain; type: biochemical; conditions: ADP production, luminescence normalized to reactions lacking bilirubin; 12 serial dilutions from 20 µM; read-out: EC50, activation of WNK1 kinase activity
T1 construct: the amino acid fragment 181–507 of human WNK1 (hWNK1)
T1 sequence (Q9H4A3 181-507): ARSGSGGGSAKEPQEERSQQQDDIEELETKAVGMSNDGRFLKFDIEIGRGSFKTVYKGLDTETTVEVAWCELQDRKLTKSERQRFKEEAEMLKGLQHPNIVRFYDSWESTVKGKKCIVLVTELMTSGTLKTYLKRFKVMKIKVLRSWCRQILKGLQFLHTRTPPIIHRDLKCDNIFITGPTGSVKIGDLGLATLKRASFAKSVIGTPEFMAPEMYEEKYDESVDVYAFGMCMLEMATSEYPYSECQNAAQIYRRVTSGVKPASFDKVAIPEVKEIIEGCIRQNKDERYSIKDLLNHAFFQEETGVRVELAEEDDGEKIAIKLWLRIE
From the text: Given the binding of bilirubin to the kinase domain of WNK1, we aimed to explore its effect on WNK1 with a particular focus on its kinase activity. To evaluate WNK1 kinase activity, we utilized an in vitro kinase enzyme assay system to quantify ADP production by the amino acid fragment 181–507 of human WNK1 (hWNK1) over a range of bilirubin concentrations. The kinase‐dead WNK1 mutant hWNK1(181–507 S382A) served as a negative control (Figure S10, Supporting Information).^[ [30] ^]
WNK1 kinase activity was measured using the ADP‐Glo Kinase Assay (Promega, Cat. V9101) following the manufacturer's instructions. Purified protein was incubated with bilirubin across a range of 12 serially diluted concentrations, beginning at a maximum concentration of 20 µM. After the incubation period, luminescence was recorded using a microplate reader (Synergy H1M, BioTek)

[3] = test system: primary cultured hippocampal neurons; test: MQAE intracellular chloride measurement in primary cultured hippocampal neurons; type: cell-based, mouse
From the text: Therefore, we hypothesized that bilirubin activation of WNK1 kinase activity might affect intracellular chloride levels. […] This was detected using the sensitive molecular probe N‐(Ethoxycarbonylmethyl)‐6‐Methoxyquinolinium Bromide (MQAE), as indicated by a reduction in MQAE fluorescence intensity (Figure 4C,E).^[ [32] ^]
To ascertain whether bilirubin regulates chloride ions through WNK1, we generated Wnk1 gene knockout primary cultured neurons. We achieved neuron‐specific deletion of Wnk1 in hippocampal neurons by transducing primary neurons isolated from Wnk1^flox/flox embryonic mice with a lentivirus expressing hSyn‐Cre‐EGFP.^[ [33], [34] ^] […] Intracellular chloride concentration is crucial for modulating inhibitory synaptic transmission and, consequently, neuronal excitability.
as §1, §2

[4] = test system: phospho-S940 KCC2; test: Western blotting of phospho-S940 KCC2 in hippocampal tissue; type: cell-based, mouse
From the text: Since bilirubin‐induced activation of WNK1 kinase activity increases [Cl⁻]i in neurons, we sought to elucidate the downstream effector proteins of WNK1 that are involved in this process. Neuronal [Cl⁻]i is primarily regulated by the Cl⁻‐K⁺ symporter KCC2, with additional modulation by factors such as the Na⁺‐K⁺‐Cl⁻ co‐transporter NKCC1, GABAA receptors, and glycine receptors (GlyR), all of which contribute to [Cl⁻]i homeostasis.^[ [31] ^] To investigate the mechanism underlying bilirubin‐induced changes in [Cl⁻]i, we selectively targeted these proteins using pharmacological inhibitors (VU0463271 for KCC2, bumetanide for NKCC1, bicuculline for GABAA receptors, and strychnine for GlyR) and activated KCC2 using CLP257.^[ [35], [36] ^] […]
Cells or tissues were lysed by grinding in RIPA buffer (cat. no. PC101; Epizyme Biotech) supplemented with a protease inhibitor cocktail (cat. no. 5872S; Cell Signaling Technology) at 4 °C. […] The total protein concentration was determined using the Pierce BCA Protein Assay Kit (cat. no. 23 225, Thermo Fisher Scientific). […]

C=CC1=C(C)/C(=C/c2[nH]c(Cc3[nH]c(/C=C4\NC(=O)C(C)=C4C=C)c(C)c3CCC(=O)O)c(CCC(=O)O)c2C)NC1=O [bilirubin, Bilirubin]
bilirubin-induced effect on [Cl−]i [1]: not observed
EC50 [2]: 896 nM
[Cl−]i levels after Wnk1 deletion ([3]; Wnk1 knockout primary neurons (hSyn-Cre lentivirus)): failed to increase
intracellular chloride concentration ([3]; varying concentrations, 30 min, MQAE fluorescence): significant increase
relative expression of phospho-S940 KCC2 ([4]; Wnk1fl/fl mice hippocampal tissue): decrease
relative expression of phospho-S940 KCC2 ([4]; Wnk1fl/fl,Thy1-Cre mice hippocampal tissue): no such effect
